Experimental data reported in PubChem BioAssay (NCI).
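Abbreviation: GI50, concentration required for 50% inhibition of growth. Definition used: TGI = concentration required for complete inhibition of growth.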

Experiments:
Experiment in all cases: DTP human tumour cell line panel, 384-well format
SNB-19 CNS = tested on: SNB-19 CNS
UACC-257 melanoma = tested on: UACC-257 melanoma
MDA-MB-231 breast = tested on: MDA-MB-231 breast
OVCAR-4 ovarian = tested on: OVCAR-4 ovarian
CAKI-1 renal = tested on: CAKI-1 renal
TK-10 renal = tested on: TK-10 renal
A549 NSCLC = tested on: A549 NSCLC
NCI-H322M lung = tested on: NCI-H322M lung
SR leukemia = tested on: SR leukemia
SK-MEL-28 melanoma = tested on: SK-MEL-28 melanoma
IGROV1 ovarian = tested on: IGROV1 ovarian
OVCAR-8 ovarian = tested on: OVCAR-8 ovarian
NCI/ADR-RES ovarian = tested on: NCI/ADR-RES ovarian
MCF7 breast = tested on: MCF7 breast
U251 glioblastoma = tested on: U251 glioblastoma
OVCAR-3 ovarian = tested on: OVCAR-3 ovarian
K-562 leukemia = tested on: K-562 leukemia
NCI-H522 lung = tested on: NCI-H522 lung
786-0 renal = tested on: 786-0 renal
RPMI-8226 leukemia = tested on: RPMI-8226 leukemia
COLO 205 colon = tested on: COLO 205 colon
SNB-75 CNS = tested on: SNB-75 CNS
HCT-15 colon = tested on: HCT-15 colon
HCC-2998 colon = tested on: HCC-2998 colon
PC-3 prostate = tested on: PC-3 prostate
NCI-H23 lung = tested on: NCI-H23 lung
MDA-MB-468 breast = tested on: MDA-MB-468 breast
SK-MEL-5 melanoma = tested on: SK-MEL-5 melanoma
A498 renal = tested on: A498 renal
MALME-3M melanoma = tested on: MALME-3M melanoma
ACHN renal = tested on: ACHN renal
SN12C renal = tested on: SN12C renal
HCT-116 colon = tested on: HCT-116 colon
BT-549 breast = tested on: BT-549 breast
SF-539 CNS = tested on: SF-539 CNS
RXF 393 renal = tested on: RXF 393 renal
MOLT-4 leukemia = tested on: MOLT-4 leukemia
CCRF-CEM leukemia = tested on: CCRF-CEM leukemia
OVCAR-5 ovarian = tested on: OVCAR-5 ovarian
HT29 colon = tested on: HT29 colon
SF-268 CNS = tested on: SF-268 CNS
HS 578T breast = tested on: HS 578T breast
MDA-MB-435 melanoma = tested on: MDA-MB-435 melanoma
KM12 colon = tested on: KM12 colon
T-47D breast = tested on: T-47D breast
UO-31 renal = tested on: UO-31 renal
NCI-H226 lung = tested on: NCI-H226 lung
SW-620 colon = tested on: SW-620 colon
HOP-62 NSCLC = tested on: HOP-62 NSCLC
DU-145 prostate = tested on: DU-145 prostate
SK-OV-3 ovarian = tested on: SK-OV-3 ovarian
EKVX NSCLC = tested on: EKVX NSCLC
LOX IMVI melanoma = tested on: LOX IMVI melanoma
NCI-H460 NSCLC = tested on: NCI-H460 NSCLC
M14 melanoma = tested on: M14 melanoma
HL-60(TB) leukemia = tested on: HL-60(TB) leukemia
SF-295 CNS = tested on: SF-295 CNS
HOP-92 NSCLC = tested on: HOP-92 NSCLC

## CN1CCN(c2ccc3nc(-c4c(N)c5c(F)cccc5[nH]c4=O)[nH]c3c2)CC1
SNB-19 CNS
  GI50: 1480 nM
  TGI: 3120 nM
UACC-257 melanoma
  GI50: 1150 nM
  TGI: 2380 nM
MDA-MB-231 breast
  GI50: 1840 nM
  TGI: 4050 nM
OVCAR-4 ovarian
  GI50: 1530 nM
  TGI: 2960 nM
CAKI-1 renal
  GI50: 265 nM
  TGI: 1320 nM
TK-10 renal
  GI50: 1250 nM
  TGI: 3220 nM
A549 NSCLC
  GI50: 720 nM
  TGI: 1990 nM
NCI-H322M lung
  GI50: 1150 nM
  TGI: 2900 nM
SR leukemia
  GI50: 170 nM
  TGI: 337 nM
SK-MEL-28 melanoma
  GI50: 1780 nM
  TGI: 3170 nM
IGROV1 ovarian
  GI50: 276 nM
  TGI: 1350 nM
OVCAR-8 ovarian
  GI50: 1240 nM
  TGI: 2530 nM
NCI/ADR-RES ovarian
  GI50: 1610 nM
  TGI: 3060 nM
MCF7 breast
  GI50: 1040 nM
  TGI: 2230 nM
U251 glioblastoma
  GI50: 714 nM
  TGI: 2010 nM
OVCAR-3 ovarian
  GI50: 1060 nM
  TGI: 2260 nM
K-562 leukemia
  GI50: 441 nM
  TGI: 1540 nM
NCI-H522 lung
  GI50: 990 nM
  TGI: 2160 nM
786-0 renal
  GI50: 1070 nM
  TGI: 2300 nM
RPMI-8226 leukemia
  GI50: 329 nM
  TGI: 1240 nM
COLO 205 colon
  GI50: 1010 nM
  TGI: 2170 nM
SNB-75 CNS
  GI50: 493 nM
  TGI: 1800 nM
HCT-15 colon
  GI50: 417 nM
  TGI: 1630 nM
HCC-2998 colon
  GI50: 744 nM
  TGI: 2020 nM
PC-3 prostate
  GI50: 1080 nM
  TGI: 3830 nM
NCI-H23 lung
  GI50: 1150 nM
  TGI: 2440 nM
MDA-MB-468 breast
  GI50: 1080 nM
  TGI: 2320 nM
SK-MEL-5 melanoma
  GI50: 1080 nM
  TGI: 2280 nM
A498 renal
  GI50: 472 nM
  TGI: 1770 nM
MALME-3M melanoma
  GI50: 495 nM
  TGI: 1670 nM
ACHN renal
  GI50: 344 nM
  TGI: 1500 nM
SN12C renal
  GI50: 442 nM
  TGI: 1590 nM
HCT-116 colon
  GI50: 624 nM
  TGI: 1900 nM
BT-549 breast
  GI50: 451 nM
  TGI: 1700 nM
SF-539 CNS
  GI50: 293 nM
  TGI: 1160 nM
RXF 393 renal
  GI50: 340 nM
  TGI: 1370 nM
MOLT-4 leukemia
  GI50: 171 nM
  TGI: 310 nM
CCRF-CEM leukemia
  GI50: 369 nM
  TGI: 1080 nM
OVCAR-5 ovarian
  GI50: 1400 nM
  TGI: 3580 nM
HT29 colon
  GI50: 1240 nM
  TGI: 2550 nM
SF-268 CNS
  GI50: 1250 nM
  TGI: 2830 nM
HS 578T breast
  GI50: 358 nM
  TGI: 1500 nM
MDA-MB-435 melanoma
  GI50: 1280 nM
  TGI: 2560 nM
KM12 colon
  GI50: 33.1 nM
  TGI: 1450 nM
T-47D breast
  GI50: 1700 nM
  TGI: 3100 nM
UO-31 renal
  GI50: 397 nM
  TGI: 1600 nM
NCI-H226 lung
  GI50: 545 nM
  TGI: 1980 nM
SW-620 colon
  GI50: 476 nM
  TGI: 1640 nM
HOP-62 NSCLC
  GI50: 1080 nM
  TGI: 2320 nM
DU-145 prostate
  GI50: 779 nM
  TGI: 2100 nM
SK-OV-3 ovarian
  GI50: 325 nM
  TGI: 1470 nM
EKVX NSCLC
  GI50: 1040 nM
  TGI: 2390 nM
LOX IMVI melanoma
  GI50: 938 nM
  TGI: 2130 nM
NCI-H460 NSCLC
  GI50: 390 nM
  TGI: 1430 nM
M14 melanoma
  GI50: 340 nM
  TGI: 1510 nM
HL-60(TB) leukemia
  GI50: 357 nM
  TGI: 1290 nM
SF-295 CNS
  GI50: 1330 nM
  TGI: 2610 nM
HOP-92 NSCLC
  GI50: 645 nM
  TGI: 2000 nM
